Measured values published in US6930314B2, “Light detection device” (Molecular Devices Corporation, priority 2000, dated 2005).

Test system: CHO ml cells
Assay: Calcium flux assay
Assay type: cell-based
Settings: CHO ml cells in 384-well microplate loaded with fluorescent calcium ion indicator; carbachol 10 nM, 100 nM, 10 μM; single selected well, frames about two seconds apart
Protocol: This example, illustrated in FIGS. 6 and 7, describes calcium flux assays conducted using an apparatus constructed in accordance with aspects of the invention.
Cultured CHO ml cells were grown overnight in a 384-well microplate, then loaded with a cell-permeant form of a fluorescent calcium ion indicator for 1 hour. […] The manual addition of carbachol (a calcium flux stimulant) in 10 nM, 100 nM, and 10 μM concentrations was used to mimic small, medium, and large sustained responses.
The figure records the average light intensity in a single selected well as a function of frame number (each frame taken approximately two seconds apart), where the selected well was one to which carbachol was added.
Here, no sustained increase in signal strength was observed, although there were small fluctuations due to shot-to-shot variations in illumination laser intensity.

C[N+](C)(C)CCOC(N)=O [carbachol]
fluorescence signal (calcium flux response) after addition of carbachol: rapid increase in the fluorescence signal over the first few frames, with a slow decay
